Assay: Storage stability in pet chew matrix
Assay type: physicochemical
Details: water activity (aw) 0.4, 4 weeks of storage
Method: Stability of Bacillus Strains 1-3 was measured in a pet chew matrix with water activity (aw) level of 0.4, which is typically growth-prohibitive for other bacteria such as Lactobacillus. While Lactobacillus viability declined over 4 weeks of storage, Bacillus Strains 1-3 remained viable for 4 weeks, with loss of viability being less than <0.5 log 10 (FIGS. 3B and 3D).

With Lactobacillus the viability over storage was “declined”.
